In ChEMBL document CHEMBL1156547, “10-Hydroxy-7,8-dihydropyrazino[1',2':1,5]pyrrolo[2,3-d]pyridazine-1,9(2H,6H)-diones: potent, orally bioavailable HIV-1 integrase strand-transfer inhibitors with activity against integrase mutants” (Bioorg Med Chem Lett, 2008):

Experiments:
[1] = Oral bioavailability in Sprague-Dawley rat at 10 mg/kg; type: ADME, organism-based; conditions: in vivo
[2] = Plasma half life in Sprague-Dawley rat at 2 mg/kg, iv; type: ADME, organism-based; parameters: dose 2 mg/kg, route intravenous
[3] = molecular target: Human immunodeficiency virus type 1 integrase (Human immunodeficiency virus 1, UniProt Q7ZJM1); test: Inhibition of HIV1 integrase strand transfer activity
Chain of Human immunodeficiency virus type 1 integrase (Q7ZJM1 whole entry): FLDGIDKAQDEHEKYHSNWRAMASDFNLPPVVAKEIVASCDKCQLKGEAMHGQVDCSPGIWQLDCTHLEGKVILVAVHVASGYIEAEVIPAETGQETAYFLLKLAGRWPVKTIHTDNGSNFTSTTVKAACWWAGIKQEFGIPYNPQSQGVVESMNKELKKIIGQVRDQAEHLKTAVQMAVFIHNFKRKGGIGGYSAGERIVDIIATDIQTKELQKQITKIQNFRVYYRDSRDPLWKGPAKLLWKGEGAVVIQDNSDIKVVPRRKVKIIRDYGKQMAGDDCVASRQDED

[4] = test system: Human immunodeficiency virus 1; test: Ratio of IC50 for HIV1 3B with integrase T66I/S153Y mutation to IC50 for wild type HIV1 3B by single-cycle viral replication assay in presence of 10% FBS; type: functional
[5] = test system: Human immunodeficiency virus 1; test: Antiviral activity against HIV1 with integrase Q148K mutation relative to wild type HIV1; type: functional
[6] = Volume of distribution in Sprague-Dawley rat at 2 mg/kg, iv; type: ADME, organism-based; parameters: dose 2 mg/kg, route intravenous; conditions: in vivo
[7] = test system: Human immunodeficiency virus 1; test: Antiviral activity against HIV1 3B in human MT4 cells assessed as reduction in p24 antigen levels after 72 hrs by multi-cycle viral replication assay in presence of 10% FBS; type: functional
[8] = test system: Human immunodeficiency virus 1; test: Antiviral activity against HIV1 3B in human MT4 cells assessed as reduction in p24 antigen levels after 72 hrs by multi-cycle viral replication assay in presence of 50% normal human serum; type: functional
Canis familiaris = test: Half life in iv dosed Beagle dog; type: ADME, organism-based, Canis lupus familiaris; conditions: in vivo
[9] = Oral bioavailability in Beagle dog; type: ADME, organism-based, Canis lupus familiaris; conditions: in vivo
[10] = test system: Human immunodeficiency virus 1; test: Ratio of IC50 for HIV1 3B with integrase N155S mutation to IC50 for wild type HIV1 3B by single-cycle viral replication assay in presence of 10% FBS; type: functional
[11] = test system: Human immunodeficiency virus 1; test: Ratio of IC50 for HIV1 3B with integrase F121Y mutation to IC50 for wild type HIV1 3B by single-cycle viral replication assay in presence of 10% FBS; type: functional
[12] = Clearance in Beagle dog; type: ADME, organism-based, Canis lupus familiaris; conditions: in vivo
[13] = Clearance in Sprague-Dawley rat at 2 mg/kg, iv; type: ADME, organism-based; parameters: dose 2 mg/kg, route intravenous; conditions: in vivo
[14] = test system: Human immunodeficiency virus 1; test: Antiviral activity against wild type HIV1 3B in human P4/R5 cells assessed as beta-galactosidase activity by single-cycle viral replication assay in presence of 10% FBS; type: functional, organism-based; conditions: Human immunodeficiency virus 1, 3B

Structure (SMILES)	bioavailability [1]	half-life [2]	IC50 [3]	Ratio IC50 [4]	fold change (FC) [5]	Vd [6]	Antiviral activity (p24 reduction) [7]	IC95 [8]	T1/2 (Canis familiaris)	bioavailability [9]	Ratio IC50 [10]	Ratio IC50 [11]	clearance [12]	clearance [13]	IC50 [14]
Cc1nn(Cc2ccc(F)cc2)c(=O)c2c(O)c3n(c12)[C@@H](C)CN(C(C)C)C3=O	17%	5.3 h	≤ 10 nM	1	3	0.3 L/kg	16 nM	35 nM	1 h	< 5%	2	1	10 mL/min/kg	3 mL/min/kg	10 nM
Cc1nn(Cc2ccc(F)cc2)c(=O)c2c(O)c3n(c12)[C@H](C)CN(C)C3=O	–	–	–	8	–	–	250 nM	1000 nM	–	–	91	9	–	–	66 nM
CCN1C[C@H](C)n2c(c(O)c3c(=O)n(Cc4ccc(F)c(Cl)c4)ncc32)C1=O	13%	9.5 h	–	1	–	0.3 L/kg	31 nM	160 nM	–	–	7	2	–	0.27 mL/min/kg	19 nM
CCN1CC(C)(C)n2c(c(O)c3c(=O)n(Cc4ccc(F)cc4)ncc32)C1=O	13%	5.2 h	–	3	–	0.3 L/kg	10 nM	30 nM	–	–	27	10	–	0.68 mL/min/kg	19 nM
CC(C)N1C[C@H](C)n2c(c(O)c3c(=O)n(Cc4ccc(F)c(Cl)c4)ncc32)C1=O	14%	13 h	–	1	–	0.2 L/kg	30 nM	220 nM	–	–	3	1	–	0.17 mL/min/kg	28 nM
CC(C)N1C[C@H](C)n2c(c(O)c3c(=O)n(Cc4ccc(F)cc4)ncc32)C1=O	21%	12 h	≤ 10 nM	1	45	0.2 L/kg	13 nM	26 nM	1 h	< 5%	6	2	10 mL/min/kg	0.17 mL/min/kg	19 nM
CCN1C[C@H](C)n2c(c(O)c3c(=O)n(Cc4ccc(F)cc4)ncc32)C1=O	31%	6 h	–	1	–	0.2 L/kg	24 nM	46 nM	–	–	27	5	–	0.5 mL/min/kg	16 nM
CN1CCn2c(c(O)c3c(=O)n(Cc4ccc(F)cc4)ncc32)C1=O	–	–	–	7	–	–	120 nM	380 nM	–	–	53	11	–	–	72 nM
CCN1C[C@H](C)n2c(c(O)c3c(=O)n(Cc4ccc(F)cc4)nc(C)c32)C1=O	7%	6.2 h	–	1	–	2.6 L/kg	17 nM	40 nM	–	–	6	1	–	17 mL/min/kg	14 nM
Cc1nn(Cc2ccc(F)cc2)c(=O)c2c(O)c3n(c12)[C@@H](C)CN(C)C3=O	–	–	–	2	–	–	10 nM	31 nM	–	–	20	4	–	–	10 nM
Cc1nn(Cc2ccc(F)cc2)c(=O)c2c(O)c3n(c12)CCN(C)C3=O	–	–	–	8	–	–	43 nM	130 nM	–	–	48	10	–	–	21 nM
CCN1C[C@@H](C)n2c(c(O)c3c(=O)n(Cc4ccc(F)cc4)ncc32)C1=O	–	–	–	9	–	–	250 nM	500 nM	–	–	10	8	–	–	52 nM
